The source made the active and inactive calls. The rule behind the calls is not given here.

We go through five compounds from ChEMBL document CHEMBL4834478, “Synthesis and biological evaluation of novel 1,4-benzodiazepin-3-one derivatives as potential antitumor agents against prostate cancer” (Bioorg Med Chem, 2021).

Data set [1] deals with PC-3. The data set can be described thus: Antiproliferative activity against human PC3 cells assessed as inhibition of cell growth measured after 72 hrs by MTT assay. The data set is classed as functional. Background: Tetrazolium assays rely on reduction of a dye to a coloured formazan, in cell work by metabolically active cells.
Data set [2] is described as follows: Metabolic stability in human liver microsomes assessed as compound degradation at 10 uM measured after 30 mins by HPLC method. Format: ADME, Microsome. Conditions: read-out: Drug degradation. (In general: Microsomes from liver hold many membrane-bound enzymes, among them those of drug oxidation.)
The nature of data set [3]: Metabolic stability in human liver microsomes assessed as compound degradation at 10 uM measured after 15 mins by HPLC method. Conditions: read-out: Drug degradation. The data set is classed as ADME, Microsome.
In data set [4] the test system is PC-3. The data set can be described thus: Antiproliferative activity against human PC3 cells assessed as inhibition of cell proliferation at 2 uM measured after 48 hrs by MTT assay. The data set is classed as functional, cell-based.
In data set [5] the test system is OVCAR-3. As to the kind of experiment: Antiproliferative activity against human OVCAR-3 cells assessed as inhibition of cell proliferation at 2 uM measured after 48 hrs by MTT assay. Format: functional, cell-based.
The test system of data set [6] is PC-3. As to the kind of experiment: Antiproliferative activity against human PC3 cells assessed as inhibition of cell proliferation at 15 uM measured after 48 hrs by MTT assay. The data set is classed as functional, cell-based.
Data set [7] relates to PANC-1. As to the kind of experiment: Antiproliferative activity against human PANC-1 cells assessed as inhibition of cell proliferation at 2 uM measured after 48 hrs by MTT assay. Format: functional, cell-based.
The subject of data set [8] is PANC-1. The data set can be described thus: Antiproliferative activity against human PANC-1 cells assessed as inhibition of cell proliferation at 15 uM measured after 48 hrs by MTT assay. The data set is classed as functional, cell-based.
Data set [9] relates to OVCAR-3. The data set can be described thus: Antiproliferative activity against human OVCAR-3 cells assessed as inhibition of cell proliferation at 15 uM measured after 48 hrs by MTT assay. Format: functional, cell-based.
For data set [10], the system named is PC-3. As to the kind of experiment: Antitumour activity against human PC-3 cells xenografted in chick chorioallantoic membrane assessed as inhibition of tumour growth at 10 ug, iv measured after 7 days. Format: functional. To be noted: dose 10 µg; time 7 day. For orientation: Xenograft models place foreign cells or tissue in a host animal.
A short description of data set [11]: Toxicity in chick embryo assessed as embryo weight at 10 to 50 ug, iv measured after 7 days. Conditions: chicken, in vivo, 168 h, dose 10-50 µg, time 7 day. The data set is classed as organism-based, Gallus gallus.
The subject of another data set is DU-145. The data set can be described thus: Antiproliferative activity against human DU-145 cells assessed as inhibition of cell proliferation measured after 72 hrs by MTT assay. Format: functional, cell-based.
The subject of data set [12] is PC-3. As to the kind of experiment: Induction of apoptosis in human PC-3 cells assessed as increase in Caspase-3 activity using Z-Asp-Glu-Val-Asp-AMC peptide as substrate at 10 uM measured after 24 to 48 hrs by based flourimetric assay. Format: functional, cell-based. To be noted: time 24-48 hrs.
A further data set has as its system RPTEC. The data set can be described thus: Cytotoxicity against human RPTEC cells assessed as inhibition of cell proliferation measured after 72 hrs by MTT assay. Format: cell-based.
A further data set has as its system LNCaP. As to the kind of experiment: Antiproliferative activity against human LNCaP cells assessed as inhibition of cell proliferation measured after 72 hrs by MTT assay. The data set is classed as functional, cell-based.
In data set [13] the test system is PC-3. The data set can be described thus: Antitumour activity against human PC-3 cells xenografted in chick chorioallantoic membrane assessed as inhibition of tumour growth at 50 ug, iv measured after 7 days. Format: functional. To be noted: dose 50 µg; time 7 day.
Another data set relates to LAPC4. The data set can be described thus: Antiproliferative activity against human LAPC4 cells assessed as inhibition of cell proliferation measured after 72 hrs by MTT assay. The data set is classed as functional, cell-based.
Data set [14] relates to PC-3. The data set can be described thus: Antiproliferative activity against human PC3 cells assessed as cellular metabolic activity at 15 uM measured after 48 hrs by MTT assay. Format: functional.

`CC(C)(C)NC(=O)[C@H]1c2cc([N+](=O)[O-])ccc2N[C@@H](Cc2ccccc2)C(=O)N1Cc1ccccc1`: the GI50 with PC-3 [1] came to 10.8 µM. The metabolised at 0.5 h, 10 µM in data set [2] is 41%. Also, the metabolised at 0.25 h, 10 µM in data set [3] was found to be 26%.
`CC(C)C[C@@H]1Nc2ccc([N+](=O)[O-])cc2C(C(=O)NC(C)(C)C)N(Cc2ccc3c(c2)OCO3)C1=O` (mixture of isomers): the outcome with PC-3 [4], with OVCAR-3 [5], in the data set on PANC-1 [7] and in the data set on PANC-1 [8] was inactive. For the same compound, the result with PC-3 [6] and in the data set with OVCAR-3 [9] was Active.
On to `CC(C)(C)NC(=O)[C@@H]1c2cc([N+](=O)[O-])ccc2N[C@@H](Cc2ccccc2)C(=O)N1Cc1ccccc1`, for which the GI50 in the data set on PC-3 [1] is 7 µM. The metabolised at 0.5 h, 10 µM in [2] was 50%. Also, the metabolised at 0.25 h, 10 µM in data set [3] turned out to be 41%.
As for `CC(C)C[C@@H]1Nc2ccc([N+](=O)[O-])cc2C(C(=O)NC(C)(C)C)N(Cc2ccccc2)C1=O` (mixture of isomers), the result in the data set with PC-3 [4], with OVCAR-3 [5], in the data set with PANC-1 [7] and with PANC-1 [8] was inactive. Besides, the outcome in the data set with PC-3 [6] and in the data set with OVCAR-3 [9] was Active.
As for `CC(C)(C)NC(=O)C1c2cc([N+](=O)[O-])ccc2N[C@@H](Cc2ccccc2)C(=O)N1Cc1ccccc1` (mixture of isomers), the outcome in the data set on PC-3 [4], in the data set on OVCAR-3 [5], in the data set with DU-145, in the data set with PANC-1 [7], in the data set on LNCaP and in the data set with PANC-1 [8] was inactive. The outcome in the data set on LAPC4 was inactive. Moreover, the TGI in the data set on PC-3 [10] was found to be 45%; in the data set on PC-3 [13], 53%. Besides, the Activity result in data set [11] is “Non-Toxic”; in the data set on RPTEC, “Non-Toxic”; in the data set with PC-3 [14], 30%. The GI50 in the data set on PC-3 [1] came to 10.2 µM. The outcome with PC-3 [12] and in the data set with OVCAR-3 [9] was Active.

Broadly, the GI50 is the concentration that inhibits growth by half. What is called TGI is how far tumour growth fell short of that in controls.
